Measurements taken from US11497706B2, “Antiperspirant and deodorant compositions” (The Procter & Gamble Company, priority 2017, dated 2022).
In brackets after ≈: the same amount, converted by molar mass. Where a name gives a salt, the structure may show the parent alone. Read-outs that look alike come from different tables or passages of the source.

What was measured:
[1] = system: C. mucofaciens; test: Tier 1 Anaerobic MIC Assay; type: cell-based, Corynebacterium mucofaciens (clinical isolate); conditions: for MIC: Corynebacterium, read-out: microbial inhibition concentration (MIC)
Source text: (§1) 1. Tier 1 Anaerobic MIC Assay
(§2) The data in Table 2 above was generated with the following test method. The purpose of this assay is to determine if a compound or formulation has an antimicrobial effect in vitro.
(§3) It is understood that when not specifically noted in this procedure: • a) All materials, reagents and equipment required for this procedure are of appropriate design and condition of cleanliness and/or sterility as determined by their intended use. • b) The operator has been trained in aseptic technique and has been qualified to perform the procedure and accurately interpret the results. • c) All media required for this procedure was manufactured by a reputable commercial source egg. Difco, Merck etc. and has been stored and prepared as per manufacturer's instructions. • d) All routine laboratory controls, including but not limited to, media function and growth promotion tests, verification of sterility and use of positive and negative controls are being conducted.
(§4) Procedure: (All Procedures Performed in Anaerobic Chamber Except where Noted)
(§5) Incubator at 37° C.; 20-200 ul channel pipette; 5-50 ul channel pipette; 1250 ul 8 channel Thermo Scientific Matrix pipette; 96 well plate shaker (located in incubator); Beckman Coulter deep well cap mat #267005; Beckman Coulter deep 96 well plates #267007; Falcon 96 well tissue culture plates #353072; Vortexer; Culture tubes/caps Disposable sterile gloves; Sterile petri dishes; Standard microbiological lab equipment (sterile pipettes, syringes, tips, loops, etc.); Glass bottles/flasks for media; Autoclave; Parafilm; Spectrophotometer.
(§6) • 0.9% or 0.85% saline solution • BHI agar supplemented with 1% Tween 80 • BHI media supplemented with 1% Tween 80 3. Microbial Strains
Corynebacterium mucofaciens (clinical isolate)
(§7) Prior to testing streak organisms for isolation on BHI with 1% Tween 80 plates, wrap with parafilm and place in 37° C. incubator. When isolated colonies appear remove one representative colony from each plate and place each in 5 ml of BHI with 1% Tween 80 media. Incubate at 37° C. with shaking overnight. Inoculate 20 ml BHI with 1% Tween 80 (per 96 deep well plate to be tested) with 20 ul of the overnight culture (1-1000 dilution).
(§8) Compounds/formulations to be tested are diluted across a 96 deep well plate as shown below (for a 1% stock solution). 800 ul of 0.85% saline is added to wells A1 and B1 (as these will be the negative and positive control respectively). 800 ul each 1% stock solution+positive control are added to wells C1 through H1. 400 ul 0.85% saline are added to all other wells. 400 ul is then removed from #1 well added to the #2 well and mixed. This is then continued across the plate resulting in a 50% dilution between wells across the plate (this can be easily accomplished with an automatic 8 channel Matrix pipette set to withdraw, dispense and mix).
(§9) In row A of a 96 deep well plate pipette 180 ul of sterile BHI with 1% Tween 80 as a negative growth control. All other wells receive 180 ul of inoculum. From the master plate introduce 20 ul to the corresponding row in the test plate using an 8-channel pipette. Loaded plates are placed on a plate shaker in the 37° C. incubator and incubated overnight. The next day read the O.D. 600 on a plate reader. The MIC is the last well from the right that has no bacterial growth.

[2] = system: S. epidermidis; test: Tier 1 Anaerobic MIC Assay; type: cell-based, Staphylococcus epidermidis (clinical isolate); conditions: for MIC: Staphylococcus epidermidis, read-out: microbial inhibition concentration (MIC)
Source text: as §1, §2, §3, §4, §5, §6
Staphylococcus epidermidis (clinical isolate)
as §7, §8, §9

[3] = system: two key underarm bacteria strains; test: Raw material microbial inhibition, summary in words; type: cell-based; conditions: C. mucofaciens and S. epidermidis
Source text: The data in Table 2 above was generated with the following test method.

[4] = anaerobic, 37° C. overnight, O.D. 600

Row | Compound | MIC [1, 4] | MIC [2, 4] | microbial inhibition concentration (MIC) [1, 4] | microbial inhibition concentration (MIC) [2, 4] | performance against the bacteria as raw materials [3] | further results
1 | N=C(N)c1ccc(OCCCCCCOc2ccc(C(=N)N)cc2)cc1 [hexamidine] | – | – | – | – | – | MIC [1]: < 2 µg/mL; MIC [2]: 7 µg/mL (≈ 0.0197 mM)
2 | [Cl-].[Na+] [NaCl] | – | – | >25000 ppm | >25000 ppm | – | –
3 | O=C([O-])[O-].[Ca+2] [calcium carbonate] | – | – | >2500 ppm | >2500 ppm | performing moderately well | –
4 | CCCCCCCCC(CO)CCCCCC (stereo not shown) [Hexyl Decanol] | – | – | 6062 ppm | 3031 ppm | – | –
5 | CCCCC/C=C\C/C=C\CCCCCCCC(=O)O [Linoleic acid] | 3120 µg/mL (≈ 11.1 mM) | 3120 µg/mL (≈ 11.1 mM) | – | – | – | –
6 | CCCCC(CC)COCC(O)CO (stereo not shown) [Ethylhexyl glycerin] | – | – | 12500 ppm | 12500 ppm | – | –
7 | C/C(=C\CO)CCC[C@H](C)CCC[C@H](C)CCCC(C)C [Phytol] | > 49000 µg/mL | > 49000 µg/mL | – | – | – | –
8 | [Ca+2].[Cl-].[Cl-] [CaCl] | – | – | >50000 ppm | >50000 ppm | – | –
9 | CC(C)=CCCC(C)=CC=O [citral] | 1500 µg/mL (≈ 9.85 mM) | 1500 µg/mL (≈ 9.85 mM) | – | – | performing well | –
10 | C=CCc1ccc(O)c(OC)c1 [eugenol] | 773 µg/mL (≈ 4.71 mM) | 773 µg/mL (≈ 4.71 mM) | – | – | performing well | –
11 | C=CCCCCCCCCC(=O)N[C@@H](Cc1ccccc1)C(=O)O [Sepiwhite] | – | – | 2000 ppm | 1000 ppm | performing well | –

Second part, led by results:

Row | MIC [1, 4] | MIC [2, 4] | Compound | microbial inhibition concentration (MIC) [1, 4] | microbial inhibition concentration (MIC) [2, 4] | performance against the bacteria as raw materials [3] | further results
12 | 47500 µg/mL (≈ 214 mM) | 5940 µg/mL (≈ 26.7 mM) | CC(C)=CCCC(C)=CCCC(C)=CCO [Farnesol] | – | – | – | –
13 | > 49000 µg/mL | > 49000 µg/mL | C=CC(C)(O)CCC=C(C)CCC=C(C)C (stereo not shown) [Nerolidol] | – | – | – | –
14 | 1600 µg/mL | 1600 µg/mL | CCOC(=O)CC(O)(CC(=O)OCC)C(=O)OCC [triethyl citrate] | – | – | performing well | –
15 | 1530 µg/mL | 3060 µg/mL | COC(=O)CCC(=O)OC [dimethyl succinate] | – | – | performing well | –
16 | < 5 µg/mL | 10 µg/mL | Cc1cc(CC(C)CC(C)(C)C)n(O)c(=O)c1.NCCO (stereo not shown) [piroctone olamine, 1-Hydroxy-4-methyl-6-(2,4,4-trimethylpentyl)-2-pyridone monoethanolamine salt, reference compound] | – | – | perform particularly well | –
17 | > 59000 µg/mL | > 59000 µg/mL | CCCCCCCCCCCCCC(=O)OC(C)C [Isopropyl Myristate] | – | – | – | –
18 | 1090 µg/mL (≈ 3.93 mM) | 1090 µg/mL (≈ 3.93 mM) | CC/C=C\C/C=C\C/C=C\CCCCCCCC(=O)O [linolenic acid] | – | – | – | –
